Earlier results in article PMC9884426, “A phase 1 clinical trial of the repurposable acetyllysine mimetic, n-methyl-2-pyrrolidone (NMP), in relapsed or refractory multiple myeloma” (Clinical Epigenetics, 2023).

Set-up: method as in PMID 9029058
Settings: human, cited from earlier work; for elimination half-life: NMP metabolites; for amount found in urine: after a single 100 mg oral dose of NMP

Compound | elimination half-life [h] | amount found in urine [%]
CN1C(=O)CC(O)C1=O (centres unmarked) [2-HMSI, 2-hydroxy-N-methylsuccinimide] | 17 | 20
CN1C(=O)CCC1O (centres unmarked) [5-HNMP, 5-hydroxy-N-methyl-2-pyrrolidone] | – | 44
CN1C(=O)CCC1=O [MSI, N-methylsuccinimide] | 8 | 0.4
